Measured values reported in patent US20060051295A1, “Estrogen receptor interaction with a transcription factor” (priority 2002, published 2006).

Experiments:
Assay type in all cases: cell-based, human
IL-6 production = experiment: IL-6 secretion by U-2OS cells stably expressing ERα (sandwich ELISA); settings: U-2OS-ERα, IL-1β 125 pg/ml + IFNγ 10 ng/ml
Text: Estrogens maintain the balance between bone resorption and formation by inhibiting the production of cytokines by osteoblasts that stimulate osteoclast activity and thus bone resorption. We analysed the relevance of ER NF-κB transrepression on IL-6 production in more depth. When the pre-osteoblast cell line U-2 OS was stimulated with cytokines such as IL-1β, production of endogenous IL-6 protein is increased. However, when U-2OS cells are also exposed to IL-1β and estrogens, the increased production of IL-6 is repressed [Table 8].
Numbers are luminescence in counts per sec reflecting IL-6 produced by the cells
Secretion of endogenously produced IL-6 was measured by sandwich ELISA as outlined in Material and Methods.
For studying repression of human IL-6 secreted by U-2 OS cells that stably overexpress ERα (U-2 OS-ERα cells) a standard sandwich ELISA was used (ELISA kit of R&D systems #DY206). Cells were plated in 24 or 96 wells plates in M505+dextran-coated charcoal stripped serum (i.e. 10% BCTS) and allowed to grow to 90% confluency.
ELISA was performed according to the protocol of the manufacturer and as briefly described below. After overnight incubation of the cells with compounds in the appropriate concentration, the supernatants were transferred to 96 wells plates that had been coated overnight with anti-IL-6 capture antibody. Captured IL-6 was subsequently detected using a biotinylated anti-IL-6 detection antibody and Streptavidin-AP. Il-6 concentrations per well were subsequently quantified using the chemoluminescent substrate CSPD (Elisa-Light™, #EL100CY, Tropix), after which luminescence was determined in a Victor multilabel counter (Wallac).

IL-6 promoter = IL-6 promoter reporter in U-2 OS with ERα and NF-κB proteins / c/EBPβ
Description: To determine the role of functional ERα/c-Rel interactions in repression of IL-6 production by estrogens, we analysed the effect of various combinations of ERα and NF-κB proteins on IL-6 production using a reporter construct containing the promoter of the IL-6 gene.
(§1) For transient transfections, cells were seeded in 6-well plates (2.10^5 cells/well). After two or three days the cells were transfected with reporter, expression vectors and β-galactosidase control vector. Two different experimental settings were used. For testing transrepression of IL-1β induced promoter activity, cells were transfected with 1 μg reporter construct, 1 μg expression vector (containing either ERα, ERβ or GR), and 0.25 μg of β-galactosidase control plasmid. For testing transrepression in combination with c-Rel or ReLA overexpression, cells were transfected with 1 μg reporter construct, 1 μg expression vector (containing either ERα, ERβ or GR) and 0.1 or 1.0 μg expression vector containing c-Rel or RelA and 0.25 μg of β-galactosidase control vector. Equivalent amounts of DNA were obtained by adding the appropriate expression vector that lacks an insert. Transient transfection was performed using lipofectin reagent (Life Technologies). […] The transfected cells were incubated overnight with test compounds prior to cell lysis. Measurement of luciferase and P-galactosidase activity were performed using respectively the luciferase assay system (Promega) and Galacto-light plus (Tropix) according to the manufacturers' protocols and measured on the Victor 1420 multilabel counter, Wallac.

cRel + ER alpha = experiment: Transrepression of c-Rel induced reporters, U-2 OS co-transfected with ERα
Description: (§2) Next was determined whether transrepression by ER is limited to particular NF-κB types, such as c-Rel or RelA, by overexpression of these NF-κB proteins in U-2 OS cells (Table 2). Again, the promoter-reporter constructs for the E-selectin, ICAM and VCAM genes were used in these experiments. Significant activation of these reporters by overexpression of c-Rel was observed. This activation was strongly and reproducibly transrepressed by both ERα and ERβ (Table 2).
(§3) Table 2. Estrogen-dependent transrepression of the promoters from E-selectin, VCAM and ICAM and a synthetic NF-κB responsive reporter, measured as the amount of luciferase activity. Transient (co-)transfections of ERα (or ERβ) and reporter were performed in U-2 OS cells. Reporter activity was induced by cellular exposure to Il-1β or by co-transfection of the NF-κB genes c-Rel or RelA. […] For detailed information on the composition of the reporters used, see appendix 1. The hyphen (-) in the table indicates the test with cells without transfected cDNA and no additives in medium; n.d. means: not determined.
as §1, with “Wallac. Detection of β-galactosidase activity was used as a control for transfection efficiency.” for “Wallac.”

cRel + ER beta = experiment: Transrepression of c-Rel induced reporters, U-2 OS co-transfected with ERβ
Description: as §2, §3
as §1, with “Wallac. Detection of β-galactosidase activity was used as a control for transfection efficiency.” for “Wallac.”

## C[C@]12CC[C@@H]3c4ccc(O)cc4CC[C@H]3[C@@H]1CC[C@@H]2O [Org E2, 17β-estradiol]
IL-6 production; E2 0.001 nM
  Il-6 production (luminescence): 136039 counts per sec
IL-6 production; E2 0.01 nM
  Il-6 production (luminescence): 79230 counts per sec
IL-6 production; E2 0.1 nM
  Il-6 production (luminescence): 50375 counts per sec
IL-6 production; E2 1 nM
  Il-6 production (luminescence): 41070 counts per sec
IL-6 promoter; ERα + C/EBPβ
  luciferase activity, IL-6 promoter reporter: 2585
IL-6 promoter; ERα + RelA
  luciferase activity, IL-6 promoter reporter: 19401
IL-6 promoter; ERα + RelA + c/EBPβ
  luciferase activity, IL-6 promoter reporter: 92837
IL-6 promoter; ERα + RelA + p50
  luciferase activity, IL-6 promoter reporter: 8232
IL-6 promoter; ERα + c/EBPβ + p50
  luciferase activity, IL-6 promoter reporter: 1724
IL-6 promoter; ERα + cRel
  luciferase activity, IL-6 promoter reporter: 1807
IL-6 promoter; ERα + cRel + RelA
  luciferase activity, IL-6 promoter reporter: 23381
IL-6 promoter; ERα + cRel + c/EBPβ
  luciferase activity, IL-6 promoter reporter: 6459
IL-6 promoter; ERα + cRel + p50
  luciferase activity, IL-6 promoter reporter: 1814
IL-6 promoter; ERα + p50
  luciferase activity, IL-6 promoter reporter: 1447
IL-6 promoter; ERα, no NF-κB protein
  luciferase activity, IL-6 promoter reporter: 1310
cRel + ER alpha
  luciferase activity, 3*NFkB-reporter: 5140
  luciferase activity, ELAM+ reporter: 3256
  luciferase activity, ELAM− reporter: 569
  luciferase activity, ICAM reporter: 3514
  luciferase activity, VCAM reporter: 259
cRel + ER beta
  luciferase activity, ELAM+ reporter: 3708
  luciferase activity, ELAM− reporter: 1495
  luciferase activity, ICAM reporter: 1611
  luciferase activity, VCAM reporter: 882
